A short description of this data set: activity coefficient (dimensionless); of the first substance listed, at infinite dilution; xn = mol fraction of the nth substance listed. Particulars: Liquid, Chromatography, x1 = 0.

± gives the expanded uncertainty stated by the source.

With `Cc1ccc(C)cc1` [1,4-dimethylbenzene] + CCCCCCCC[N+](C)(C)C.O=S(=O)([N-]S(=O)(=O)C(F)(F)F)C(F)(F)F, the activity coefficient came to 1.38 ± 0.05 (322.85 K), 1.39 ± 0.05 (332.65 K) and 1.37 ± 0.05 (343.15 K).
With `CCCC(C)=O` [pentan-2-one] + CCCCCCCC[N+](C)(C)C.O=S(=O)([N-]S(=O)(=O)C(F)(F)F)C(F)(F)F, the activity coefficient worked out at 0.57 ± 0.03 (322.85 K), 0.57 ± 0.03 (332.65 K) and 0.57 ± 0.03 (343.15 K).
For `CCOCC` [diethyl ether] + CCCCCCCC[N+](CCCCCCCC)(CCCCCCCC)CCCCCCCC.O=S(=O)([N-]S(=O)(=O)C(F)(F)F)C(F)(F)F, the activity coefficient (322.85 K) stood at 0.71 ± 0.03, the activity coefficient (332.65 K) turned out to be 0.71 ± 0.03 and the activity coefficient (343.15 K) was 0.71 ± 0.03.
For `CCO` [ethanol] + CCCCCCCCCC[N+](C)(C)C.O=S(=O)([N-]S(=O)(=O)C(F)(F)F)C(F)(F)F, the activity coefficient runs as follows: (322.85 K) 1.29 ± 0.04; (332.65 K) 1.19 ± 0.04; (343.15 K) 1.07 ± 0.03.
For `CCO` [ethanol] + CCCCCCCC[N+](C)(C)C.O=S(=O)([N-]S(=O)(=O)C(F)(F)F)C(F)(F)F the same measures were 1.47 ± 0.06, 1.32 ± 0.05 and 1.19 ± 0.04.
In the same order, the values of `CC(C)CO` [2-methyl-1-propanol] + CCCC[N+](C)(CCCC)CCCC.O=S(=O)([N-]S(=O)(=O)C(F)(F)F)C(F)(F)F are 1.97 ± 0.09, 1.82 ± 0.08 and 1.64 ± 0.07.
For the compound `C1CCCCCC1` [cycloheptane] + CCCC[N+](C)(CCCC)CCCC.O=S(=O)([N-]S(=O)(=O)C(F)(F)F)C(F)(F)F, the activity coefficient reads like this: (322.85 K) 12.4 ± 0.57; (332.65 K) 17.7 ± 0.82; (343.15 K) 23.9 ± 1.1.
For the compound `Cc1cccc(C)c1` [1,3-dimethylbenzene] + CCCCCCCC[N+](C)(C)C.O=S(=O)([N-]S(=O)(=O)C(F)(F)F)C(F)(F)F, the activity coefficient by setting is: (322.85 K) 1.39 ± 0.05; (332.65 K) 1.39 ± 0.05; (343.15 K) 1.38 ± 0.05.
As for `CC1CCCC1` [methylcyclopentane] + CCCCCCCCCC[N+](C)(C)C.O=S(=O)([N-]S(=O)(=O)C(F)(F)F)C(F)(F)F, the activity coefficient amounted to 2.99 ± 0.14 (322.85 K), 2.99 ± 0.14 (332.65 K) and 2.83 ± 0.13 (343.15 K).
`Cc1cccc(C)c1` [1,3-dimethylbenzene] + CCCC[N+](C)(CCCC)CCCC.O=S(=O)([N-]S(=O)(=O)C(F)(F)F)C(F)(F)F: the activity coefficient is 1.49 ± 0.06 (322.85 K), 1.56 ± 0.06 (332.65 K) and 1.56 ± 0.06 (343.15 K).
Consider `CCOCC` [diethyl ether] + CCCC[N+](C)(CCCC)CCCC.O=S(=O)([N-]S(=O)(=O)C(F)(F)F)C(F)(F)F, for which the activity coefficient is, setting by setting: (322.85 K) 1.65 ± 0.07; (332.65 K) 1.67 ± 0.07; (343.15 K) 1.65 ± 0.07.
Take `CCCO` [propan-1-ol] + CCCCCCCC[N+](CCCCCCCC)(CCCCCCCC)CCCCCCCC.O=S(=O)([N-]S(=O)(=O)C(F)(F)F)C(F)(F)F: the activity coefficient amounted to 1.22 ± 0.04 (322.85 K), 1.14 ± 0.03 (332.65 K) and 1.04 ± 0.03 (343.15 K).
As to `CCC=O` [propanal] + CCCC[N+](C)(CCCC)CCCC.O=S(=O)([N-]S(=O)(=O)C(F)(F)F)C(F)(F)F, the activity coefficient is, setting by setting: (322.85 K) 0.49 ± 0.03; (332.65 K) 0.49 ± 0.03; (343.15 K) 0.5 ± 0.03.
In the case of `OCC(F)(F)F` [2,2,2-trifluoroethanol] + CCCCCCCC[N+](C)(C)C.O=S(=O)([N-]S(=O)(=O)C(F)(F)F)C(F)(F)F, the activity coefficient came out at 0.4 ± 0.03 (322.85 K), 0.38 ± 0.03 (332.65 K) and 0.35 ± 0.04 (343.15 K).
On to `CCCC(C)=O` [pentan-2-one] + CCCC[N+](C)(CCCC)CCCC.O=S(=O)([N-]S(=O)(=O)C(F)(F)F)C(F)(F)F, for which the activity coefficient is 0.55 ± 0.03 (322.85 K), 0.58 ± 0.03 (332.65 K) and 0.59 ± 0.03 (343.15 K).
For `CCCCCCCC` [octane] + CCCCCCCCCC[N+](C)(C)C.O=S(=O)([N-]S(=O)(=O)C(F)(F)F)C(F)(F)F the same measures were 6.53 ± 0.3, 6.41 ± 0.29 and 6.1 ± 0.28.
As for `CCCC(C)=O` [pentan-2-one] + CCCCCCCCCC[N+](C)(C)C.O=S(=O)([N-]S(=O)(=O)C(F)(F)F)C(F)(F)F, the activity coefficient amounted to 0.44 ± 0.03 (322.85 K), 0.47 ± 0.03 (332.65 K) and 0.47 ± 0.03 (343.15 K).
On to `CCCCCCC` [heptane] + CCCCCCCCCC[N+](C)(C)C.O=S(=O)([N-]S(=O)(=O)C(F)(F)F)C(F)(F)F, for which the activity coefficient (322.85 K) was 5.26 ± 0.24, the activity coefficient (332.65 K) turned out to be 5.14 ± 0.23 and the activity coefficient (343.15 K) came out at 4.92 ± 0.22.
For `C=O` [methanal] + CCCCCCCCCC[N+](C)(C)C.O=S(=O)([N-]S(=O)(=O)C(F)(F)F)C(F)(F)F the same measures were 0.09 ± 0.04, 0.1 ± 0.04 and 0.11 ± 0.04.
As for `CCCCO` [butan-1-ol] + CCCCCCCC[N+](C)(C)C.O=S(=O)([N-]S(=O)(=O)C(F)(F)F)C(F)(F)F, the activity coefficient by setting is: (322.85 K) 2.01 ± 0.09; (332.65 K) 1.8 ± 0.08; (343.15 K) 1.59 ± 0.06.
Turning to `CCC[N+](=O)[O-]` [1-nitropropane] + CCCC[N+](C)(CCCC)CCCC.O=S(=O)([N-]S(=O)(=O)C(F)(F)F)C(F)(F)F, the activity coefficient runs as follows: (322.85 K) 0.68 ± 0.03; (332.65 K) 0.7 ± 0.03; (343.15 K) 0.68 ± 0.03.
For the compound `ClCCl` [dichloromethane] + CCCCCCCC[N+](C)(C)C.O=S(=O)([N-]S(=O)(=O)C(F)(F)F)C(F)(F)F, the activity coefficient by setting is: (322.85 K) 0.51 ± 0.03; (332.65 K) 0.53 ± 0.03; (343.15 K) 0.54 ± 0.03.
For `CCCCCC` [hexane] + CCCC[N+](C)(CCCC)CCCC.O=S(=O)([N-]S(=O)(=O)C(F)(F)F)C(F)(F)F the same measures were 6.75 ± 0.31, 6.75 ± 0.31 and 6.44 ± 0.29.
In the case of `CCCCO` [butan-1-ol] + CCCCCCCCCC[N+](C)(C)C.O=S(=O)([N-]S(=O)(=O)C(F)(F)F)C(F)(F)F, the activity coefficient was 1.7 ± 0.07 (322.85 K), 1.55 ± 0.06 (332.65 K) and 1.38 ± 0.05 (343.15 K).
In the same order, the values of `C=CCCCC` [hex-1-ene] + CCCC[N+](C)(CCCC)CCCC.O=S(=O)([N-]S(=O)(=O)C(F)(F)F)C(F)(F)F are 4.31 ± 0.2, 4.4 ± 0.2 and 4.25 ± 0.19.
In the same order, the values of `C#CCCCC` [1-hexyne] + CCCCCCCCCC[N+](C)(C)C.O=S(=O)([N-]S(=O)(=O)C(F)(F)F)C(F)(F)F are 1.61 ± 0.06, 1.63 ± 0.07 and 1.57 ± 0.06.
Regarding `C1COCCO1` [1,4-dioxane] + CCCCCCCCCC[N+](C)(C)C.O=S(=O)([N-]S(=O)(=O)C(F)(F)F)C(F)(F)F, the activity coefficient by setting is: (322.85 K) 0.56 ± 0.03; (332.65 K) 0.57 ± 0.03; (343.15 K) 0.57 ± 0.03.
For `CCc1ccccc1` [ethylbenzene] + CCCCCCCC[N+](C)(C)C.O=S(=O)([N-]S(=O)(=O)C(F)(F)F)C(F)(F)F, the activity coefficient is 1.39 ± 0.05 (322.85 K), 1.4 ± 0.05 (332.65 K) and 1.38 ± 0.05 (343.15 K).
For `Cc1ccccc1` [toluene] + CCCC[N+](C)(CCCC)CCCC.O=S(=O)([N-]S(=O)(=O)C(F)(F)F)C(F)(F)F the same measures were 1.13 ± 0.03, 1.19 ± 0.04 and 1.19 ± 0.04.
For `CC1CCCC1` [methylcyclopentane] + CCCCCCCC[N+](C)(C)C.O=S(=O)([N-]S(=O)(=O)C(F)(F)F)C(F)(F)F the same measures were 4.18 ± 0.19, 3.95 ± 0.18 and 3.67 ± 0.17.
In the same order, the values of `CC1CCCC1` [methylcyclopentane] + CCCCCCCC[N+](CCCCCCCC)(CCCCCCCC)CCCCCCCC.O=S(=O)([N-]S(=O)(=O)C(F)(F)F)C(F)(F)F are 0.98 ± 0.03, 0.97 ± 0.03 and 0.97 ± 0.03.
With `ClCCl` [dichloromethane] + CCCCCCCCCC[N+](C)(C)C.O=S(=O)([N-]S(=O)(=O)C(F)(F)F)C(F)(F)F, the activity coefficient (322.85 K) worked out at 0.51 ± 0.03, the activity coefficient (332.65 K) came to 0.55 ± 0.03 and the activity coefficient (343.15 K) turned out to be 0.56 ± 0.03.
For `CCC(=O)CC` [pentan-3-one] + CCCC[N+](C)(CCCC)CCCC.O=S(=O)([N-]S(=O)(=O)C(F)(F)F)C(F)(F)F, the activity coefficient by setting is: (322.85 K) 0.5 ± 0.03; (332.65 K) 0.54 ± 0.03; (343.15 K) 0.56 ± 0.03.
In the case of `c1ccsc1` [thiophene] + CCCCCCCC[N+](CCCCCCCC)(CCCCCCCC)CCCCCCCC.O=S(=O)([N-]S(=O)(=O)C(F)(F)F)C(F)(F)F, the activity coefficient (322.85 K) is 0.4 ± 0.03, the activity coefficient (332.65 K) was found to be 0.4 ± 0.03 and the activity coefficient (343.15 K) came out at 0.41 ± 0.03.
On to `c1ccncc1` [pyridine] + CCCCCCCC[N+](CCCCCCCC)(CCCCCCCC)CCCCCCCC.O=S(=O)([N-]S(=O)(=O)C(F)(F)F)C(F)(F)F, for which the activity coefficient (322.85 K) worked out at 0.33 ± 0.04, the activity coefficient (332.65 K) was 0.33 ± 0.04 and the activity coefficient (343.15 K) is 0.34 ± 0.04.
Turning to `CC#N` [acetonitrile] + CCCC[N+](C)(CCCC)CCCC.O=S(=O)([N-]S(=O)(=O)C(F)(F)F)C(F)(F)F, the activity coefficient is, setting by setting: (322.85 K) 0.49 ± 0.03; (332.65 K) 0.5 ± 0.03; (343.15 K) 0.48 ± 0.03.
On to `ClC(Cl)Cl` [trichloromethane] + CCCCCCCC[N+](C)(C)C.O=S(=O)([N-]S(=O)(=O)C(F)(F)F)C(F)(F)F, for which the activity coefficient was 0.63 ± 0.03 (322.85 K), 0.65 ± 0.03 (332.65 K) and 0.66 ± 0.03 (343.15 K).
In the same order, the values of `CCC(C)=O` [butanone] + CCCC[N+](C)(CCCC)CCCC.O=S(=O)([N-]S(=O)(=O)C(F)(F)F)C(F)(F)F are 0.4 ± 0.03, 0.38 ± 0.03 and 0.35 ± 0.04.

These data come from the NIST ThermoML archive (doi:10.1021/je200637v).
